Assay results reported in US12528790B2, “Amide derivative having antiviral activity” (Shionogi & Co., Ltd., priority 2020, dated 2026).
pEC50: −log10 of the molar value. Read-outs that look alike come from different tables or passages of the source.

Key:
[1] = tested on: RSV B (Wash/18537 strain); experiment: In vitro CPE (CytoPathic Effect) inhibition effect evaluation test, RSV type B; assay type: cell-based; conditions: inhibitory effect against RSV type B, CPE inhibition, read-out: EC50
Method in brief: (§1)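 EC50 is the concentration giving 50% inhibition of virus-induced cytopathic effect, fitted by nonlinear regression from CellTiter-Glo 2.0 viability. Compounds in 3-fold series were co-incubated at 37 °C with HEp-2 cells and RSV: A2 strain for 4 days, B (Wash/18537) for 5 days; uninfected wells served as control.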

RSV A2 strain = experiment: In vitro CPE (CytoPathic Effect) inhibition effect evaluation test, RSV type A; assay type: cell-based; conditions: inhibitory effect against RSV type A (RSV A2 strain), HEp-2 cells, CPE inhibition, read-out: EC50
Method in brief: as §1

[2] = human respiratory syncytial virus

| SMILES | pEC50 [1, 2] | pEC50 (RSV A2 strain; [2]) | pEC50 [1] | pEC50 (RSV A2 strain) |
| --- | --- | --- | --- | --- |
| O=C(NC1(C(=O)O)C2CC3CC(C2)CC1C3)c1cnc(N2CC3(CCCCC3)c3cc(O[C@H]4CCN(c5ncc(F)cn5)C4)ccc32)nc1C(F)(F)F (stereo partly drawn) [Compound I-524] | 5.30 to 7.00 | > 8.00 | – | – |
| O=C(NC1(C(=O)O)C2CC3CC(C2)CC1C3)c1cnc(N2CC3(CCCCC3)c3cc(O[C@@H]4CCN(c5ncc(F)cn5)C4)ccc32)nc1C(F)(F)F (stereo partly drawn) [Compound I-525] | > 8.00 | > 8.00 | – | – |
| CC(F)(F)c1nc(N2CC3(CCOCC3)c3cc(OC4CCN(CC(F)(F)F)CC4)ncc32)ncc1C(=O)NC1(C(=O)O)C2CC3CC(C2)CC1C3 (stereo not drawn) [Compound I-526] | > 8.00 | > 8.00 | – | – |
| CC(F)(F)c1nc(N2CC3(CCOCC3)c3cc(OC4CCC5(CC4)COC5)ccc32)ncc1C(=O)NC1(C(=O)O)C2CC3CC(C2)CC1C3 (stereo not drawn) [Compound I-527] | > 8.00 | > 8.00 | – | – |
| CC(F)(F)c1nc(N2CC3(CCOCC3)c3cc(OC4CCN(CC#N)CC4)ccc32)ncc1C(=O)NC1(C(=O)O)C2CC3CC(C2)CC1C3 (stereo not drawn) [Compound I-528] | 5.30 to 7.00 | > 8.00 | – | – |
| CC(F)(F)c1nc(N2CC3(CCOCC3)c3cc(OC4CCN(CCC(F)(F)F)CC4)ccc32)ncc1C(=O)NC1(C(=O)O)C2CC3CC(C2)CC1C3 (stereo not drawn) [Compound I-529] | > 8.00 | > 8.00 | – | – |
| CC(F)(F)c1nc(-c2cn(C3CC3)c3cc(O[C@H]4CC[C@H](N5CC(F)(F)C5)CC4)ccc23)ncc1C(=O)NC1(C(=O)O)C2CC3CC(C2)CC1C3 (stereo partly drawn) [Compound I-530] | > 8.00 | > 8.00 | – | – |
| O=C(NC1(C(=O)O)C2CC3CC(C2)CC1C3)c1cnc(-c2cn(C3CC4(CC4)C3)c3cc(O[C@H]4CC[C@H](N5CC(F)(F)C5)CC4)ccc23)nc1C(F)(F)F (stereo partly drawn) [Compound I-531] | > 8.00 | > 8.00 | – | – |
| CC(F)(F)c1nc(N2CC3(CCOCC3)c3cc(OC4CCN(CC5COC5)CC4)ccc32)ncc1C(=O)NC1(C(=O)O)C2CC3CC(C2)CC1C3 (stereo not drawn) [Compound I-532] | 7.00 to 8.00 | > 8.00 | – | – |
| CC(F)(F)c1nc(N2CC3(CCOCC3)c3cc(OC4CCN(CC5CC(F)(F)C5)CC4)ccc32)ncc1C(=O)NC1(C(=O)O)C2CC3CC(C2)CC1C3 (stereo not drawn) [Compound I-533] | > 8.00 | > 8.00 | – | – |
| Cc1nnc(N2CCC(Oc3ccc4c(c3)C3(CCCCC3)CN4c3ncc(C(=O)NC4(C(=O)O)C5CC6CC(C5)CC4C6)c(C(F)(F)F)n3)CC2)o1 (stereo not drawn) [Compound I-534] | > 8.00 | > 8.00 | – | – |
| CC(F)(F)c1nc(N2CC3(CCCCC3)c3cc(OC4CCN(c5nnc(C(F)(F)F)s5)CC4)ccc32)ncc1C(=O)NC1(C(=O)O)C2CC3CC(C2)CC1C3 (stereo not drawn) [Compound I-535] | 7.00 to 8.00 | > 8.00 | – | – |
| CC(F)(F)c1nc(N2CC3(CCCCC3)c3cc(OC4CCN(c5nc(C(F)(F)F)ns5)CC4)ccc32)ncc1C(=O)NC1(C(=O)O)C2CC3CC(C2)CC1C3 (stereo not drawn) [Compound I-536] | 7.00 to 8.00 | > 8.00 | – | – |
| COc1cnc(N2CCC(Oc3ccc4c(c3)C3(CCCCC3)CN4c3ncc(C(=O)NC4(C(=O)O)C5CC6CC(C5)CC4C6)c(C(F)(F)F)n3)CC2)cn1 (stereo not drawn) [Compound I-537] | 7.00 to 8.00 | > 8.00 | – | – |
| CC(F)(F)c1nc(N2CC3(CCOCC3)c3cc(OC4CCC(N5CCC(F)(F)C5)CC4)ccc32)ncc1C(=O)NC1(C(=O)O)C2CC3CC(C2)CC1C3 (stereo not drawn) [Compound I-538] | – | – | > 8.00 | > 8.00 |
| CC(F)(F)c1nc(N2CC3(CCCCC3)c3cc(OC4CCC(N5CCC(F)(F)C5)CC4)ccc32)ncc1C(=O)NC1(C(=O)O)C2CC3CC(C2)CC1C3 (stereo not drawn) [Compound I-539] | – | – | 7.00 to 8.00 | > 8.00 |
| CC(F)(F)c1nc(N2CC3(CCCCC3)c3cc(OC4CCC(N5CCC(F)(F)C5)CC4)ccc32)ncc1C(=O)NC1(C(=O)O)C2CC3CC(C2)CC1C3 (stereo not drawn) [Compound I-540] | – | – | 7.00 to 8.00 | > 8.00 |
| CC(F)(F)c1nc(N2CC3(CCOCC3)c3cc(OC4CCC(N5CCC(F)(F)C5)CC4)ccc32)ncc1C(=O)NC1(C(=O)O)C2CC3CC(C2)CC1C3 (stereo not drawn) [Compound I-541] | – | – | > 8.00 | > 8.00 |
| CC(F)(F)c1nc(N2CC3(CCOCC3)c3cc(OC4CN(c5ncc(F)cn5)C4)ccc32)ncc1C(=O)NC1(C(=O)O)C2CC3CC(C2)CC1C3 (stereo not drawn) [Compound I-542] | > 8.00 | > 8.00 | – | – |
| O=C(NC1(C(=O)O)C2CC3CC(C2)CC1C3)c1cnc(-c2cn(C3CC3)c3cc(O[C@H]4CC[C@@H](N5CC(F)(F)C5)CC4)ccc23)nc1C(F)(F)F (stereo partly drawn) [Compound I-543] | > 8.00 | > 8.00 | – | – |
| CC(F)(F)CN1CCC(Oc2ccc3c(-c4ncc(C(=O)NC5(C(=O)O)C6CC7CC(C6)CC5C7)c(C(F)(F)F)n4)cn(C4CC4)c3c2)CC1 (stereo not drawn) [Compound I-544] | 7.00 to 8.00 | > 8.00 | – | – |
